According to publication PMC9804781, “Identification of a Novel Pseudo‐Natural Product Type IV IDO1 Inhibitor Chemotype” (Angewandte Chemie (International Ed. in English), 2022):
Where “and” joins values, the source holds several entries; their conditions need not be identical. Equal values may be shown once. Read-outs that look alike come from different tables or passages of the source.

Legend:
[1] = test system: Kyn levels in BxPC-3 cells; assay: Manual Kyn assay in BxPC-3 cells (p-DMAB detection), incl. hemin competition; format: cell-based; conditions: IFN-γ, L-Trp
Procedure: Mammalian cell lines were maintained at 37°C and 5% CO2 in a humidified atmosphere and sub-cultivated twice a week. All cell lines were tested regularly for mycoplasma contamination and were always free of mycoplasma. BxPC-3 cells (DSMZ#760) were grown in RPMI-1640 medium supplemented with 10% FBS, 2 mM L-glutamine, 1 mM sodium pyruvate, 4.5 g/L glucose, 10 mM HEPES and 1.5 g/L NaHCO3. HeLa cells (DSMZ#57) were cultivated in DMEM supplemented with 10% FBS, 4.5 g/L glucose, 4 mM L-glutamine 1 mM sodium pyruvate, 1% non-essential amino acids, 3.7 g/L NaHCO3. SKOV-3 cells (ATCC#HTB-77) were maintained in modified McCoy’s 5A medium supplemented with 10% FBS, 1.5 mM L-glutamine and 2.2 g/L NaHCO3. […]
For manual testing, BxPC-3, HeLa or SKOV-3 cells (20,000 cells/well, 5,000 cells/well or 6,250 cells/well, respectively) were seeded in 96-well plates (BxPC-3 and HeLa) or 384-well plates (SKOV-3) in medium without phenol red. […]
temperature and centrifuged for 10 min at 1800 x g. Afterwards, an equal volume of freshly prepared 2% (w/v) p-DMAB in glacial acetic acid (Ehrlich reagent) was added prior to measuring the absorbance at 492 nm and 650 nm on the Spark® Multimode Microplate Reader (Tecan, AT).
To determine the Kyn levels, the absorbance of the Kyn-p-DMAB adduct A492 was subtracted by the background absorbance A650 and normalized to the DMSO control. […]

IDO1 = IDO1 (Homo sapiens, UniProt P14902); assay: Kyn assay in IDO1-HEK293T cells (CMV promoter); format: cell-based; design: host or cells: HEK293T; conditions: absence of IFN-γ; L-Trp, 24 h; p-DMAB
Procedure: page 80: temperature and centrifuged for 10 min at 1800 x g. Afterwards, an equal volume of freshly prepared 2% (w/v) p-DMAB in glacial acetic acid (Ehrlich reagent) was added prior to measuring the absorbance at 492 nm and 650 nm on the Spark® Multimode Microplate Reader (Tecan, AT). To determine the Kyn levels, the absorbance of the Kyn-p-DMAB adduct […] was subtracted by the background absorbance A650 and normalized to the DMSO control. Data analysis was performed using a non-linear regression curve fit and GraphPad Prism 9.0 (GraphPad Software, Inc, US) to generate dose-response curves and obtain IC50 values. […] Afterwards, an equal volume of freshly prepared 2% (w/v) p-DMAB in glacial acetic acid (Ehrlich reagent) was added prior to measuring the absorbance at 492 nm and 650 nm on the Spark® Multimode Microplate Reader (Tecan, AT). To determine the Kyn levels, the absorbance of the Kyn-p-DMAB adduct […] was subtracted by the background absorbance A650 and normalized to the DMSO control. […] Afterwards, an equal volume of freshly prepared 2% (w/v) p-DMAB in glacial acetic acid (Ehrlich reagent) was added prior to measuring absorbance at 492 nm and 650 nm on the Spark® Multimode Microplate Reader (Tecan, AT). To determine the Kyn levels, the absorbance of the Kyn-p-DMAB adduct […] was subtracted by the background absorbance A650 and normalized to the DMSO control. […]

rhIDO1 (holo-IDO1) = target: T1, rhIDO1 (holo-IDO1) (Homo sapiens, UniProt P14902); assay: nanoDSF thermal denaturation of IDO1; format: binding
T1 construct: His; made in house; host or cells: E. coli
Procedure: 11 µM rhIDO1 was incubated with compounds at indicated concentrations for 60 min at 37°C in 50 mM potassium phosphate buffer (16.9 mM K2HPO4, 33.1 mM, KH2PO4, pH 6.5). The thermal protein stability from 20°C to 90°C (1°C/min) was measured by means of the intrinsic tryptophan/tyrosine fluorescence using the Prometheus™ NT.48 (NanoTemper® Technologies, DE). Melting scans, first derivatives of melting scans and melting temperatures were analyzed using PR.ThermControl software (NanoTemper® Technologies, DE). Binding affinities were determined by plotting the melting temperature against the ligand concentration and fitting with a single site ligand binding function using GraphPad Prism 9.0 (GraphPad Software, Inc, US). The isothermal analysis of the nanoDSF data was performed with FoldAffinity[1] with an assumed heat capacity change ΔCp of zero. […]

T1 sequence (P14902 whole entry): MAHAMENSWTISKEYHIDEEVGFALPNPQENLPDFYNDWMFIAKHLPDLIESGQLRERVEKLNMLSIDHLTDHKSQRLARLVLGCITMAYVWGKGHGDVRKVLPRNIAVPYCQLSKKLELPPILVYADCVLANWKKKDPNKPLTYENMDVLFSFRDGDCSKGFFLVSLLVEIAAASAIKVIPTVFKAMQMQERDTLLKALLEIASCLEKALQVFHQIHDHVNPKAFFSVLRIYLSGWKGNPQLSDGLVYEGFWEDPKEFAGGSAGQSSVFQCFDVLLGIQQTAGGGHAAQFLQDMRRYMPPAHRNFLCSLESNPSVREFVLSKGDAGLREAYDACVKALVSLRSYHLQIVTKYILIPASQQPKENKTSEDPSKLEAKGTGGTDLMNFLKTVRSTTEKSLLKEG
IDO1, sequence (P14902 whole entry): as above

Kyn production in HEK293T cells transiently expressing IDO1 (IDO1): inhibited Kyn production
Kd (rhIDO1 (holo-IDO1); 48 °C, FoldAffinity, first replicate, read-out: KD, 48°C (isothermal analysis, single replicate)): 11.6 nM
Kd (rhIDO1 (holo-IDO1); 49 °C, FoldAffinity, read-out: KD, 49°C (isothermal analysis, single replicates)): 24.7 nM and 26 nM
Kd (rhIDO1 (holo-IDO1); 50 °C, FoldAffinity, read-out: KD, 50°C (isothermal analysis, single replicates)): 48.4 nM and 34.7 nM and 24.8 nM
Kd (rhIDO1 (holo-IDO1); 51 °C, FoldAffinity, read-out: KD, 51°C (isothermal analysis, single replicates)): 54.4 nM and 41.3 nM and 33.6 nM
Kd (rhIDO1 (holo-IDO1); at 49 °C, read-out: KD (isothermal analysis of nanoDSF data)): 20.7 ± 0.01 nM
Kd (rhIDO1 (holo-IDO1); from Tm vs concentration, mean±SD, n=3, read-out: apparent dissociation constant KD,app): 1100 nM and 1090 nM
shift of melting temperature Tm (nanoDSF) (rhIDO1 (holo-IDO1); holo-IDO1, 60 min at 37 °C): 7.7±0.3 °C
melting temperature Tm of IDO1 with compound (rhIDO1 (holo-IDO1); holo-IDO1 treated with compound, DMSO 45.7±0.2 °C): 53.5±0.2 °C
Structure (SMILES): CCOC(=O)C1=CC[C@](C(=O)OC)(c2cc3ccccc3n2C)N(S(=O)(=O)c2ccc(C)cc2)[C@@H]1C(=O)OC(C)(C)C [Compound 3d]
effect of free hemin on potency in the Kyn assay ([1]; BxPC-3, hemin, 600 nM apoxidole-1, 48 h): reduced the potency
activity in Kyn assay in BxPC-3 cells ([1]; BxPC-3 cells, 48 h, p-DMAB): completely inactive
